{
  "source": "patent US20170258756A1",
  "about": "“A Method for Topically Treating Actinic Keratosis on the Scalp with Ingenol 3-(3,5-diethylisoxazole-4-carboxylate)” (LEO Laboratories Limited, priority 2014, published 2017)",
  "key": {"dermal tumours": {"test_system": "dermal tumours", "experiment": "in vivo studies in mice, effects on dermal tumours", "settings": "compared with ingenol mebutate", "description": "The exact mechanism of action of ingenol 3-(3,5-diethylisoxazole-4-carboxylate) continues to be investigated, but it is believed that ingenol 3-(3,5-diethylisoxazole-4-carboxylate) has a dual mechanism of action inducing cell death as well as stimulation of immune response."}, "[1]": {"test_system": "actinic keratosis on the scalp", "experiment": "Part 2 open label trial, 0.037% gel once daily for three consecutive days on the scalp", "assay_type": "in vivo, human", "description": "The outcome for Part 2 is safety and efficacy in a once daily application for three consecutive days on the scalp. The efficacy in treating of the AK will be measured as reduction in AK count in the treated area of lesions which are not considered hyperkeratotic/hypertrophic.\nIn parallel the efficacy in treating of the AK will be measured as reduction in AK count in the treated area of lesions which are considered hyperkeratotic/hypertrophic.\nThe reduction in AK count will be performed at week 4 and 8 no matter the type of lesion. Also complete clearance of AKs in the treated area which are not considered hyperkeratotic/hypertrophic at week 8 will be measured.\nTo qualify for part 2 of the trial, the subjects must have 5-20 clinically visible and discrete AKs within 250 cm^2 area on the balding scalp (The balding part of the scalp should be greater than 25 cm^2 and up to approximately 250 cm^2). In addition to the requirement of 5-20 clinically typical, visible and discrete AKs within the selected treatment area, subjects may also have visible and discrete hyperkeratotic/hypertrophic lesions in this area. The subjects will be treated with a dose of 0.037% as a once daily three consecutive days treatment and followed for 8 weeks.\nThe trial consists of an initial part, where 18 subjects will be treated on the scalp. […] As this is a safety trial, it is considered justified to conduct this clinical trial as an open-label, uncontrolled trial. An early safety and tolerability evaluation will be performed following the 3 days treatment. If safety and tolerability is found acceptable by the Early Data Review Committee, and additional 44 subjects will be enrolled in order to expand safety observations and obtain an estimate of treatment efficacy.\nThe patients are scheduled for 7 visits: • Visit 1: within 21 days prior to day 1 • Visit 2: day 1 (application of trial medication) • Visit 3: […] (application of trial medication) • Visit 4: day 8 (+2 day) • Visit 5: week 2 (±2 day) • Visit 6: week 4 (±4 day) • Visit 7: week 8 (±7 day)\nLSRs are evaluated at all visits following visit 1. AK lesion counts are performed on Visit 2, 6 and 7.\nAt Baseline (Day 1) and Visit 7 (Week 8), the investigator will make a clinical (visual and tactile) assessment of the extent of photo-damage in the treatment area with respect to 1) fine wrinkling, 2) coarse wrinkling, 3) mottled pigmentation, 4) roughness, 5) sallowness, 6) skin laxity, and 7) telangiectasia. Severity for each of these characteristics will be on a 5-point scale: None (0), Mild (1), Moderate (2), Severe (3), Extreme (4).\nAt Visit 7 (Week 8) the Investigator will make an overall clinical (visual and tactile) assessment of the subject's photo-damage change from baseline in the treatment area (including an integrated assessment of fine wrinkling, coarse wrinkling, mottled pigmentation, roughness, sallowness, skin laxity, and telangiectasia based on the subject's appearance at the baseline visit).\nAt Visit 7 (Week 8), the subjects will complete a self-assessment questionnaire evaluating the change in the 1) overall appearance of the skin and 2) overall feel of the skin after treatment. The scoring will be on a 5-point scale: Much worsened, Somewhat worsened, No change, somewhat improved, much improved.\nThe secondary response criteria will be analysed for the full analysis set and for the per protocol analysis set. The ratio of number of AK lesions at week 8 relative to baseline, excluding lesions identified at base line as hyperkeratotic/hypertrophic lesions, will be tabulated by treatment group. Separately for each treatment group, the rate and corresponding 95% confidence interval will be estimated from a negative binomial regression on the AK count at week 8 with the log baseline value as an offset variable. The same analysis will be performed for the subgroup of lesions identified as hyperkeratotic/hypertrophic at baseline. […]"}, "[2]": {"test_system": "actinic keratosis on the scalp", "experiment": "Part 1 dose escalation trial, gel once daily for two consecutive days on the scalp (LSR / DLT)", "assay_type": "in vivo, human", "description": "Local skin reactions (LSRs) occurs sometimes in the treated area. Often LSRs are quantified by a scale evaluating the following types of skin reactions: erythema, flaking/scaling, crusting, swelling, vasiculation/postulation, and erosion/ulceration which are categorized into categories 0-4 depending on the severity of the reactions.\nDose Limiting toxicity (DLT) is defined as the following LSR: […]\nErosion/ulceration grade 4.\nOr other clinically relevant signs or symptoms observed, which the Investigator judges to be counted as a DLT. Maximum tolerated dose (MTD) is declared as dose level at which less than 4 subjects out of experience a DLT of cohort of 12 subjects.\nPart 1 was a dose escalation study conducted with a once daily application of trial medication for two consecutive days and continued until the MTD was identified.\nDose escalation proceeded if the safety and tolerability data of the subject up to day 8 was reviewed and considered satisfactory. The treatment consisted of once daily treatment for 2 consecutive days. Up to 5 different doses may be investigated in cohorts of […]. The number of subjects in each cohort depended on the number of observed DLTs. However, the MTD was always be confirmed in a cohort of 12 subjects. […] Dose escalation was stopped at the 0.075% dose level as the investigators in this study felt that the application site adverse events, although manageable, could pose a problem for some patients. […] Part 2 is a study of the efficacy of the 0.037% dose identified in part 1 in a three day regimen.\nPart 1: Trial medication, ingenol 3-(3,5-diethylisoxazole-4-carboxylate) gel, will be applied to the treatment area once daily for two consecutive days until the maximum tolerated dose has been reached for each formulation. Up to five different doses of active compound in gel may be investigated in cohorts 12 subjects.\nPredefined grades of Local Skin Responses (LSRs) will constitute dose limiting toxicity (DLT). The maximum tolerated dose is defined as the highest dose level at which less than 4 out of12 subjects experience a Dose limiting toxicity.\nThe doses will be administered in an escalating manner following review of safety and tolerability data performed by the dose escalation committee. Evaluation of the safety and tolerability data will be performed after Visit 5/day 8. Then subjects will be followed for 8 weeks after first application of investigational product."}},
  "data": [
    {"molecule": "CCc1noc(CC)c1C(=O)O[C@H]1C(C)=C[C@]23C(=O)[C@@H](C=C(CO)[C@@H](O)[C@]12O)[C@H]1[C@@H](C[C@H]3C)C1(C)C", "note": "[ingenol 3-(3,5-diethylisoxazole-4-carboxylate)]", "values": [
      {"measurement": "efficacy in eliminating dermal tumours", "setting": "dermal tumours", "value": "more efficacious than ingenol mebutate"},
      {"measurement": "reduction in AK count", "setting": "[1]; once daily three consecutive days, scalp, 62 patients, week 8", "value": 79, "unit": "%"},
      {"measurement": "complete clearance", "setting": "[1]; once daily three consecutive days, scalp, week 8", "value": 40, "unit": "%"},
      {"measurement": "improvement in appearance and feel reported by subjects", "setting": "[1]; three day regimen, cosmetic outcome self-assessment, % of subjects", "value": "more than 90%"},
      {"measurement": "photo damage improved, share of patients", "setting": "[1]; three day regimen, investigator assessment", "value": "two-thirds"},
      {"measurement": "time at which side-effects maximize", "setting": "[1]; three day regimen, rapid decline thereafter", "value": 4, "unit": "days"},
      {"measurement": "side-effects", "setting": "[1]; three day regimen, scalp", "value": "considered acceptable"},
      {"measurement": "tolerability of selected dose with respect to LSRs and application site reaction", "setting": "[2]; 0.037%, two days dosing regimen", "value": "well tolerated"},
      {"measurement": "subjects meeting dose limiting toxicity (DLT) criteria", "setting": "[2]; two day regimen, dose escalation up to 0.075%", "value": "no subjects met the predefined criteria for DLT"},
      {"measurement": "dose level at which dose escalation was stopped", "setting": "[2]; two day regimen, stopped because of application site adverse events, manageable", "value": 0.075, "unit": "%"},
      {"measurement": "tolerability of 0.037% and 0.05% doses", "setting": "[2]; two day treatment, compared with 0.075%", "value": "clearly better tolerated"}
    ]}
  ]
}
